Results from ChEMBL document CHEMBL3885881, “DrugMatrix”.

Organism: Rattus norvegicus
Test: DrugMatrix - Regimen: Daily Repeat
Type: toxicity, organism-based, Sprague-Dawley
Set-up: regimen Daily Repeat, gender Male, age 6-8 weeks
Settings: in vivo, po, route oral GAVAGE, […]; for ABSOLUTE BASOPHIL / ABSOLUTE EOSINOPHIL / ABSOLUTE LYMPHOCYTE / ABSOLUTE MONOCYTE / ABSOLUTE SEGMENTED NEUTROPHIL / BASOPHIL / EOSINOPHIL / ERYTHROCYTE COUNT / HEMATOCRIT / HEMOGLOBIN / LEUKOCYTE COUNT / LYMPHOCYTE / MEAN CORPUSCULAR HEMOGLOBIN / MEAN CORPUSCULAR HEMOGLOBIN CONCENTRATION / MONOCYTE / NEUTROPHIL / NUCLEATED RED BLOOD CELLS / PLATELET COUNT: tissue Blood; for ALANINE AMINOTRANSFERASE / ALBUMIN / ALKALINE PHOSPHATASE / ASPARTATE AMINOTRANSFERASE / BLOOD UREA NITROGEN / CARBON DIOXIDE / CHLORIDE / CHOLESTEROL / CREATINE PHOSPHOKINASE / CREATININE / GLUCOSE / LACTATE DEHYDROGENASE / LIPASE / PHOSPHORUS / POTASSIUM / SODIUM / TOTAL BILIRUBIN / TOTAL PROTEIN / URIC ACID: tissue Plasma
[1] = 0 mg/kg, 72 h, dose level Control, time 3 day
[2] = 0 mg/kg, 120 h, dose level Control, time 5 day
[3] = 250 mg/kg, 72 h, dose level Low, time 3 day

Cc1noc(NS(=O)(=O)c2ccc(N)cc2)c1C [SULFISOXAZOLE]
ABSOLUTE BASOPHIL [1]: 0 CELLS/uL
ABSOLUTE EOSINOPHIL [1]: 0 CELLS/uL
ABSOLUTE LYMPHOCYTE [1]: 11091.17 CELLS/uL
ABSOLUTE MONOCYTE [1]: 172.17 CELLS/uL
ABSOLUTE SEGMENTED NEUTROPHIL [1]: 1186.67 CELLS/uL
BASOPHIL [1]: 0%
EOSINOPHIL [1]: 0%
ERYTHROCYTE COUNT [1]: 5.87 x10E6/uL
HEMATOCRIT [1]: 36.87%
HEMOGLOBIN [1]: 14.03 G/DL
LEUKOCYTE COUNT [1]: 12.45 x10E3/uL
LYMPHOCYTE [1]: 88.67%
MEAN CORPUSCULAR HEMOGLOBIN [1]: 23.93 pg
MEAN CORPUSCULAR HEMOGLOBIN CONCENTRATION [1]: 38.1 G/DL
MONOCYTE [1]: 1.5%
NEUTROPHIL [1]: 9.83%
NUCLEATED RED BLOOD CELLS [1]: 0 /100WBC
PLATELET COUNT [1]: 1150.33 x10E3/uL
ALANINE AMINOTRANSFERASE [1]: 67.17 u/L
ALBUMIN [1]: 4.03 G/DL
ALKALINE PHOSPHATASE [1]: 462.5 u/L
ASPARTATE AMINOTRANSFERASE [1]: 88 u/L
BLOOD UREA NITROGEN [1]: 13.17 mg/dL
CARBON DIOXIDE [1]: 29.33 mmol/L
CHLORIDE [1]: 101 MEQ/L
CHOLESTEROL [1]: 69.17 mg/dL
CREATINE PHOSPHOKINASE [1]: 292.5 u/L
CREATININE [1]: 0.17 mg/dL
GLUCOSE [1]: 167.5 mg/dL
LACTATE DEHYDROGENASE [1]: 198.5 u/L
LIPASE [1]: 10.67 u/L
PHOSPHORUS [1]: 11.73 mg/dL
POTASSIUM [1]: 5.91 MEQ/L
SODIUM [1]: 143.3 MEQ/L
TOTAL BILIRUBIN [1]: 0.18 mg/dL
TOTAL PROTEIN [1]: 5.7 G/DL
URIC ACID [1]: 1.3 mg/dL
ABSOLUTE BASOPHIL [2]: 0 CELLS/uL
ABSOLUTE EOSINOPHIL [2]: 64.33 CELLS/uL
ABSOLUTE LYMPHOCYTE [2]: 12494.67 CELLS/uL
ABSOLUTE MONOCYTE [2]: 117 CELLS/uL
ABSOLUTE SEGMENTED NEUTROPHIL [2]: 1340.67 CELLS/uL
BASOPHIL [2]: 0%
EOSINOPHIL [2]: 0.33%
ERYTHROCYTE COUNT [2]: 5.82 x10E6/uL
HEMATOCRIT [2]: 36.97%
HEMOGLOBIN [2]: 14.18 G/DL
LEUKOCYTE COUNT [2]: 14.02 x10E3/uL
LYMPHOCYTE [2]: 89%
MEAN CORPUSCULAR HEMOGLOBIN [2]: 24.42 pg
MEAN CORPUSCULAR HEMOGLOBIN CONCENTRATION [2]: 38.4 G/DL
MONOCYTE [2]: 0.83%
NEUTROPHIL [2]: 9.83%
NUCLEATED RED BLOOD CELLS [2]: 0 /100WBC
PLATELET COUNT [2]: 1097.83 x10E3/uL
ALANINE AMINOTRANSFERASE [2]: 58.83 u/L
ALBUMIN [2]: 3.92 G/DL
ALKALINE PHOSPHATASE [2]: 414.17 u/L
ASPARTATE AMINOTRANSFERASE [2]: 89.17 u/L
BLOOD UREA NITROGEN [2]: 16.83 mg/dL
CARBON DIOXIDE [2]: 29.17 mmol/L
CHLORIDE [2]: 100.33 MEQ/L
CHOLESTEROL [2]: 54.5 mg/dL
CREATINE PHOSPHOKINASE [2]: 386.17 u/L
CREATININE [2]: 0.23 mg/dL
GLUCOSE [2]: 184.17 mg/dL
LACTATE DEHYDROGENASE [2]: 229.17 u/L
LIPASE [2]: 10.83 u/L
PHOSPHORUS [2]: 10.88 mg/dL
POTASSIUM [2]: 5.97 MEQ/L
SODIUM [2]: 142.2 MEQ/L
TOTAL BILIRUBIN [2]: 0.12 mg/dL
TOTAL PROTEIN [2]: 5.63 G/DL
URIC ACID [2]: 1.55 mg/dL
ABSOLUTE BASOPHIL [3]: 0 CELLS/uL
ABSOLUTE EOSINOPHIL [3]: 53.33 CELLS/uL
ABSOLUTE LYMPHOCYTE [3]: 12619.33 CELLS/uL
ABSOLUTE MONOCYTE [3]: 200.67 CELLS/uL
ABSOLUTE SEGMENTED NEUTROPHIL [3]: 1193.33 CELLS/uL
BASOPHIL [3]: 0%
EOSINOPHIL [3]: 0.33%
ERYTHROCYTE COUNT [3]: 5.71 x10E6/uL
HEMATOCRIT [3]: 36.37%
HEMOGLOBIN [3]: 14.1 G/DL
LEUKOCYTE COUNT [3]: 14.07 x10E3/uL
LYMPHOCYTE [3]: 89.67%
MEAN CORPUSCULAR HEMOGLOBIN [3]: 24.7 pg
MEAN CORPUSCULAR HEMOGLOBIN CONCENTRATION [3]: 38.77 G/DL
MONOCYTE [3]: 1.33%
NEUTROPHIL [3]: 8.67%
NUCLEATED RED BLOOD CELLS [3]: 0 /100WBC
PLATELET COUNT [3]: 1238.67 x10E3/uL
ALANINE AMINOTRANSFERASE [3]: 58.33 u/L
ALBUMIN [3]: 4.03 G/DL
ALKALINE PHOSPHATASE [3]: 426.33 u/L
ASPARTATE AMINOTRANSFERASE [3]: 80.67 u/L
BLOOD UREA NITROGEN [3]: 15 mg/dL
CARBON DIOXIDE [3]: 27.33 mmol/L
CHLORIDE [3]: 102.67 MEQ/L
CHOLESTEROL [3]: 67.67 mg/dL
CREATINE PHOSPHOKINASE [3]: 283.67 u/L
CREATININE [3]: 0.16 mg/dL
GLUCOSE [3]: 171.67 mg/dL
LACTATE DEHYDROGENASE [3]: 137.33 u/L
LIPASE [3]: 9.67 u/L
PHOSPHORUS [3]: 11.9 mg/dL
POTASSIUM [3]: 6.14 MEQ/L
SODIUM [3]: 145.13 MEQ/L
TOTAL BILIRUBIN [3]: 0.13 mg/dL
TOTAL PROTEIN [3]: 5.6 G/DL
